Laboratory results published in patent US20140057880A1, “ANTCIN DERIVATIVES IN COMBINATION WITH ANTI-CANCER DRUGS IN THE TREATMENT AND/OR PREVENTION OF TUMORS” (Taiwan Antitumor Biotech Co., Ltd., priority 2012, published 2014).
Converted amounts (≈) assume the structure as drawn. Read-outs that look alike come from different tables or passages of the source.

Legend:
[1] = system: HepG2 cells; assay: cells; conditions: Homo sapiens, HepG2, 24 h, read-out: IC50 of HepG2 cells
[2] = system: HepG2 cells
[3] = system: human cancer cells; conditions: human cancer cells rather than normal cells; cited from earlier work
[4] = system: CCD-966SK cells; assay: Cell viability assay (MTT assay), normal cell line CCD-966SK; type: cell-based

O=c1[nH]cc(F)c(=O)[nH]1 [5FU, 5-fluorouracil]
IC50 [1]: 200 µg/mL (≈ 1540 µM) | killing of HepG2 cells ([2]; 5FU alone, high concentration): cannot be completely killed

C=C(CC[C@@H](C)[C@H]1CC[C@H]2C3=C(C(=O)C[C@]12C)[C@@]1(C)CCC(=O)[C@@H](C)[C@@H]1CC3)[C@@H](C)C(=O)O [Antcin A, 4α-methylergosta-8,24(28)-diene-3,11-dione-26-oic acid]
selective inhibition of proliferation [3]: selectively inhibit proliferation of human cancer cells rather than normal cells

C=C(CC[C@@H](C)[C@H]1CC[C@H]2C3=C(C(=O)C[C@]12C)[C@@]1(C)CCC(=O)[C@@H](C)C1C[C@@H]3O)C(C)C(=O)O (stereo partly shown) [Antcin C, 4amethylergosta-8,24(28)-dien-3,11-trion-7P-26-oic acid]
selective inhibition of proliferation [3]: selectively inhibit proliferation of human cancer cells rather than normal cells

C=C(CC[C@@H](C)[C@H]1CC[C@H]2C3=C(C(=O)C[C@]12C)[C@@]1(C)CCC(=O)[C@@H](C)[C@@H]1CC3)C(C)C(=O)OC (stereo partly shown) [Methyl antcinate A]
selective inhibition of proliferation [3]: selectively inhibit proliferation of human cancer cells rather than normal cells

O=C1c2c(O)ccc(O)c2C(=O)c2c(NCCNCCO)ccc(NCCNCCO)c21 [mitoxantrone]
IC50 [1]: ~2.5 µg/mL (≈ 5.62 µM) | viability of normal cells (CCD-966SK cells) ([4]; mitoxantrone alone at about 2.5 μg/ml (FIG. 12)): reduced

CCN(CC)CCNC(=O)c1c(C)[nH]c(/C=C2\C(=O)Nc3ccc(F)cc32)c1C [sunitinib]
IC50 [1]: ~25 µg/mL (≈ 62.7 µM) | killing of normal cells (CCD-966SK cells) ([4]; sunitinib alone at about 25 μg/ml (FIG. 10)): also killed

CC/C(=C(\c1ccccc1)c1ccc(OCCN(C)C)cc1)c1ccccc1 [tamoxifen]
killing of HepG2 cells ([2]; 12.5 μg/ml tamoxifen alone): cannot be completely killed
